Test results from patent US4416885A, “Use of isopropylaminopyrimidine in the chemotherapy of muscular dystrophy, myopathy and myotonia” (priority 1982, dated 1983).

How the values were obtained:
Assay type in all cases: in vivo, chicken
[1] = test system: dystrophic New Hampshire chickens, line 413; assay: Overall assessment of chemotherapy over all parameters measured
Method: The compound IAPP was tested on dystrophic New Hampshire chickens, line 413, and Imperial College (London, England) sub-line of the original Davis, University of California strain. The chickens are homozygous for muscular dystrophy, the disease appearing with 100% incidence.
Chemotherapy was assessed by application of seven different parameters: physical tests of muscular disability, namely the flip test and wing apposition (W.A.) measurements; biochemical assays of serum and muscle enzume levels of creatine phosphokinase (CPK), pyruvate kinase (PK) and acetylcholinesterase (AChE); and histological comparisons of treated and untreated muscle. Toxicity studies (weight loss, etc.) were also used. A very comprehensive profile of the drug was thus obtained which related to all the known, highly characteristic features of the disease which are applicable to both the animal model and the human. […]

[2] = test system: dystrophic New Hampshire chickens, line 413; assay: Toxicity (weight change, other symptoms) in dystrophic chickens
[3] = test system: plasma CPK (creatine phosphokinase); assay: Plasma CPK
Method: Chemotherapy was assessed by application of seven different parameters: physical tests of muscular disability, namely the flip test and wing apposition (W.A.) measurements; biochemical assays of serum and muscle enzume levels of creatine phosphokinase (CPK), pyruvate kinase (PK) and acetylcholinesterase (AChE); and histological comparisons of treated and untreated muscle. Toxicity studies (weight loss, etc.) were also used. A very comprehensive profile of the drug was thus obtained which related to all the known, highly characteristic features of the disease which are applicable to both the animal model and the human.
Plasma CPK rises dramatically in the dystrophic chicken as it does also in the human disease. The normal chicken has 200-300 U/l CPK, compared to about 20,000 U/l in the untreated dystrophic chicken at its peak. It rises to these high levels over a period of two months and is, therefore, a significant index of the disease. […]
Finally, oral therapy with IAPP was undertaken at gradually increasing dosages up to 1 g/Kg/day. The parameters (physical, biochemical and histological) measured previously were again used to test the efficacy of the drug; five different dosages were used orally, each being given for 30-60 days, daily (Tables VII-XI). A total of 75 animals were treated in the current study with IAPP and 70 control animals were used.

[4] = test system: dystrophic 413 muscle explants; assay: Microtubule complexes in muscle explants of injected dystrophic chickens
Excerpt: Essentially, these experiments were divided into three subgroups, taken from the previous Table:
413A, 413B, 412A, 412B: All were sacrificed after 4 injections and muscle explants placed in culture.
413C, 412C: All were sacrificed after 8 injections and muscle explants were placed in culture.
413D, 412D: All were sacrificed after 10 injections and muscle explants placed in culture.
All explants were placed in CMRL culture medium containing 5% horse serum, 15% fetal bovine serum and 1% antibiotics and allowed to grow for 5-7 days before being fixed and observed for the presence or absence of microtubules. No IAPP was added to the culture medium during the 5-7 days in culture.

[5] = 200 mg/Kg i.p. daily for 28 days
[6] = oral 1 g/Kg daily, first four weeks
[7] = 200 mg/Kg i.p. daily for 30 days, day 28 ex ovo
[8] = 200 mg/Kg i.p. daily for 30 days, day 45 ex ovo
[9] = 200 mg/Kg i.p. daily for 30 days, day 56 ex ovo
[10] = 200 mg/Kg i.p. daily for 30 days, day 84 ex ovo
[11] = 300 mg/Kg i.p. daily for 30 days, day 28 ex ovo
[12] = 300 mg/Kg i.p. daily for 30 days, day 45 ex ovo
[13] = 300 mg/Kg i.p. daily for 30 days, day 56 ex ovo
[14] = 300 mg/Kg i.p. daily for 30 days, day 84 ex ovo
[15] = 300 mg/Kg i.p. three times weekly for 30 days, day 28 ex ovo
[16] = 300 mg/Kg i.p. three times weekly for 30 days, day 45 ex ovo
[17] = 300 mg/Kg i.p. three times weekly for 30 days, day 84 ex ovo
[18] = Table VII, oral 200 mg/Kg, 60 days, day 28 ex ovo
[19] = Table VII, oral 200 mg/Kg, 60 days, day 35 ex ovo
[20] = Table VII, oral 200 mg/Kg, 60 days, day 45 ex ovo
[21] = Table VII, oral 200 mg/Kg, 60 days, day 60 ex ovo
[22] = oral 300 mg/Kg daily, day 28 ex ovo
[23] = oral 300 mg/Kg daily, day 35 ex ovo
[24] = oral 450 mg/Kg daily for 45 days, day 28 ex ovo
[25] = oral 450 mg/Kg daily for 45 days, day 35 ex ovo
[26] = oral 450 mg/Kg daily for 45 days, day 50 ex ovo
[27] = oral 600 mg/Kg daily, day 28 ex ovo
[28] = oral 600 mg/Kg daily, day 35 ex ovo
[29] = oral 600 mg/Kg daily, day 50 ex ovo
[30] = oral 1 g/Kg daily, day 28 ex ovo
[31] = oral 1 g/Kg daily, day 35 ex ovo

CC(C)Nc1ncccn1.O=P(O)(O)O [IAPP, 2-isopropylaminopyrimidine orthophosphate]
Physical performance [1, 5]: not significantly improved | Reduction in plasma enzyme levels [1, 5]: large reduction in plasma enzume levels | Persistence of enzyme reduction after injections ceased ([1]; 200 mg/Kg i.p., CPK, PK, AChE reduced from control values): 56 days | Plasma enzyme activities ([1]; 300 mg/Kg i.p. daily): greatly reduced | Persistence of reduced plasma enzyme levels after treatment ceased ([1]; 300 mg/Kg i.p. three times weekly): 56 days | Reductions in plasma enzyme levels vs daily therapy ([1]; 300 mg/Kg three times weekly): very comparable reductions in plasma enzyme levels | Difference between treated and dystrophic control animals, parameters measured ([1]; Exp. 1, 30 mg/Kg i.p. daily): no significant differents | Flip number and wing apposition ([1]; Exp. 2, 40 mg/Kg): significant improvement | Effect on all parameters measured ([1]; Exp. 2, 40 mg/Kg i.p. daily): significant effect of IAPP on all parameters measured | CPK, PK and AChE enzyme levels ([1]; Exp. 2, 40 mg/Kg, effect declining at end of 10-week experiment): reduced dramatically | minimal effective dose ([1]; Gallus gallus, ip, read-out: Minimum concentration found effective): 40 mg/kg | Effect on physical performance parameters ([1]; oral 200 mg/Kg, 60 days): no effect | Enzyme levels and physical performance ([1]; oral 600 mg/Kg): significant reductions in enzyme levels and improvements in physical performance | Physical performance parameters [1, 6]: greatly improved | Reduction in enzyme levels [1, 6]: highly significant reduction in enzyme levels | Effective oral dosage ([1]; oral, daily for 35 days, chicken): 1 g/kg | Maximum Weight Loss ([2]; 300 mg/Kg i.p. three times weekly for 30 days): 17% | Weight loss / toxic symptoms ([2]; initial single injection 50 mg/Kg, over 7 days): no weight loss over 7 days, nor any other toxic symptoms | Maximum Weight Loss ([2]; oral 600 mg/Kg daily): 4% | Maximum weight loss, reduction from control values ([2]; oral therapy, all doses): 7% | CPK [3, 7]: 478 mU/ml | CPK, % change from control [3, 7]: -61% | CPK [3, 8]: 4810 mU/ml | CPK, % change from control [3, 8]: -40% | CPK [3, 9]: 5412 mU/ml | CPK, % change from control [3, 9]: -48% | CPK [3, 10]: 13,540 mU/ml | CPK, % change from control [3, 10]: -36% | CPK [3, 11]: 651 mU/ml | CPK, % change from control [3, 11]: -46% | CPK [3, 12]: 4505 mU/ml | CPK, % change from control [3, 12]: -44% | CPK [3, 13]: 7629 mU/ml | CPK, % change from control [3, 13]: -27% | CPK [3, 14]: 24,248 mU/ml | CPK, % change from control [3, 14]: +15% | CPK [3, 15]: 651 mU/ml | CPK, % change from control [3, 15]: -46% | CPK [3, 16]: 6076 mU/ml | CPK, % change from control [3, 16]: -24% | CPK ([3]; 300 mg/Kg i.p. three times weekly for 30 days, day 56 ex ovo): 7944 mU/ml | CPK [3, 17]: 16,602 mU/ml | CPK, % change from control [3, 17]: -21% | % CPK Change vs untreated dystrophic controls ([3]; Exp. 2, 40 mg/Kg i.p. daily, day 7-13): -8% | % CPK Change vs untreated dystrophic controls ([3]; Exp. 2, 40 mg/Kg i.p. daily, day 14-20): -46% | % CPK Change vs untreated dystrophic controls ([3]; Exp. 2, 40 mg/Kg i.p. daily, day 21-27): -21% | % CPK Change vs untreated dystrophic controls ([3]; Exp. 2, 40 mg/Kg i.p. daily, day 28-34): -59% | % CPK Change vs untreated dystrophic controls ([3]; Exp. 2, 40 mg/Kg i.p. daily, day 35-41): -57% | % CPK Change vs untreated dystrophic controls ([3]; Exp. 2, 40 mg/Kg i.p. daily, day 42-48): -72% | % CPK Change vs untreated dystrophic controls ([3]; Exp. 2, 40 mg/Kg i.p. daily, day 56-62): -47% | % CPK Change vs untreated dystrophic controls ([3]; Exp. 2, 40 mg/Kg i.p. daily, day 63-71): -32% | % CPK Change vs untreated dystrophic controls ([3]; Exp. 3, 70 mg/Kg i.p. daily, day 21-27): -51% | % CPK Change vs untreated dystrophic controls ([3]; Exp. 3, 70 mg/Kg i.p. daily, day 28-34): -53% | CPK [3, 18]: 3496 mU/ml | CPK, % change from control [3, 18]: -31% | CPK [3, 19]: 7336 mU/ml | CPK, % change from control [3, 19]: -1% | CPK [3, 20]: 9638 mU/ml | CPK, % change from control [3, 20]: -18% | CPK [3, 21]: 10,860 mU/ml | CPK, % change from control [3, 21]: -24% | Reduction in plasma CPK levels ([3]; oral 200 mg/Kg, 60 days): moderate reduction | CPK [3, 22]: 3794 mU/ml | CPK, % change from control [3, 22]: -23% | CPK [3, 23]: 6690 mU/ml | CPK, % change from control [3, 23]: -30% | CPK [3, 24]: 4713 mU/ml | CPK, % change from control [3, 24]: -18% | CPK [3, 25]: 6483 mU/ml | CPK, % change from control [3, 25]: -24% | CPK [3, 26]: 17,975 mU/ml | CPK, % change from control [3, 26]: +30% | CPK [3, 27]: 2658 mU/ml | CPK, % change from control [3, 27]: -53% | CPK [3, 28]: 4712 mU/ml | CPK, % change from control [3, 28]: -45% | CPK [3, 29]: 9084 mU/ml | CPK, % change from control [3, 29]: -34% | CPK [3, 30]: 2217 mU/ml | CPK, % change from control [3, 30]: -63% | CPK [3, 31]: 4018 mU/ml | CPK, % change from control [3, 31]: -68% | % Full Complexes Microtubules ([4]; 413B, Subgroup A, after 4 injections of 50 mg/Kg, 413A control 31%): 58% | % Full Complexes Microtubules ([4]; 413C, Subgroup B, after 8 injections of 50 mg/Kg): 60% | % Full Complexes Microtubules ([4]; 413D, Subgroup C, after 10 injections of 50 mg/Kg): 74%
